Laboratory results: patent US20130197032A1, “[…] COMPOUNDS FOR THE TREATMENT OF NEUROLOGICAL AND […] DISORDERS” (A. CARLSSON RESEARCH AB, priority 2010, published 2013)

Tests used:
human 5-HT1B receptor = human 5-HT1B receptor (Homo sapiens, UniProt P28222); experiment: R-SAT assay 5-HT1B; assay type: cell-based; details: Table 3, 5-HT1B; for Eff (%): percent response of reference 5-CT
human 5-HT1F receptor = biological target: T1, human 5-HT1F receptor (Homo sapiens, UniProt P30939); experiment: R-SAT assay 5-HT1F; assay type: cell-based; details: Table 3, 5-HT1F; percent response of reference BRL 54443
T1 construct: expressed in transfected cells; host or cells: NIH/3T3
T1 sequence (P30939 1-366): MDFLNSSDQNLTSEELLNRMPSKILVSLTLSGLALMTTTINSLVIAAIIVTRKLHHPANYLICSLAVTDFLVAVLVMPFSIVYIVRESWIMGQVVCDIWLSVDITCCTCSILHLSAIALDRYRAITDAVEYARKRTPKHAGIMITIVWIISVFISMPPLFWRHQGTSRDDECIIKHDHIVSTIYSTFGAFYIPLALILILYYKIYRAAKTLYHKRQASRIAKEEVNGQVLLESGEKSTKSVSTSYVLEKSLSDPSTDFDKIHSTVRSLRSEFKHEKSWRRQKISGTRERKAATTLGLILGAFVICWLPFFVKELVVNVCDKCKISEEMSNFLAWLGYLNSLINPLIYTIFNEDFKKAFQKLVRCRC

human H1 receptor = biological target: T2, human H1 receptor (Homo sapiens, UniProt P35367); experiment: R-SAT assay H1; assay type: cell-based; details: Table 3, H1; percent response of reference Histamine
T2 construct: expressed in transfected cells; host or cells: NIH/3T3

human M4 receptor = biological target: T3, human M4 receptor (Homo sapiens, UniProt P08173); experiment: R-SAT assay M4; assay type: cell-based; details: Table 3, M4; percent response of reference Carbachol
T3 construct: expressed in transfected cells; host or cells: NIH/3T3
T3 sequence (P08173 1-479): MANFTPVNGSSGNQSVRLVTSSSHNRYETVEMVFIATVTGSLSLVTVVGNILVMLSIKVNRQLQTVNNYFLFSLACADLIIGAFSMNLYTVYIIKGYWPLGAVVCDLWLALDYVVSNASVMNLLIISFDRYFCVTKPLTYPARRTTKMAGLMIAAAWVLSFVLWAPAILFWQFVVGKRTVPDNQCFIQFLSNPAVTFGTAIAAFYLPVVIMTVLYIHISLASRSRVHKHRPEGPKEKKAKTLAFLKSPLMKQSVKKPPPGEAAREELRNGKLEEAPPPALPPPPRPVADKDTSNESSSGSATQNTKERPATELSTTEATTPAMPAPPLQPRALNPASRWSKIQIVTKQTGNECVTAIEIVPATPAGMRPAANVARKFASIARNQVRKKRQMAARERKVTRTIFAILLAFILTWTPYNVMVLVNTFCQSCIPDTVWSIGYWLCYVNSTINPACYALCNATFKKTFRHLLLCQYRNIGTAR

human alpha2B receptor = biological target: T4, human alpha2B receptor (Homo sapiens, UniProt P18089); experiment: R-SAT assay α2B; assay type: cell-based; details: Table 3, α2B; percent response of reference UK 14,306
T4 construct: expressed in transfected cells; host or cells: NIH/3T3 cells, transient transfection, pSI vector

active rats = experiment: Motor activity in active rats, video tracking; assay type: in vivo; details: 30, 60, 120 μmol/kg sc 30 minutes prior to recording
Protocol: Motor activity experiments in both active and habituated rats were performed on male Sprague-Dawley rats (Charles River, Germany) weighing 280-320 g. Prior to testing, rats were housed in groups of four or five in ventilated Macrolon type IV cages for approximately one week.
The rats were housed in reverse daylight cycle and all handling of the animals was performed in dim light. Test drugs were administered s.c. 30 minutes prior to registration of behavior. Single rats were introduced into rectangular arenas (l/w/h: 150×100×40 cm) illuminated indirectly by one infrared (IR) lamp (Neocom, South Korea). The rats' movements were recorded to digital (MPEG2) video files using an IR sensitive video camera (Panasonic WV-CPR480, lens: Panasonic LA-408C3) connected to a PC equipped with a MPEG-encoder (MVR1000SX, Canopus Co.).
Suspected outliers were evaluated one at the time with Grubbs' test for outliers (Grubbs F E (1969) Procedures for detecting outlying observations in samples. Technometrics 11(1):1-21).
The third series of experiments was performed in drug naive rats (FIG. 8). Rats were injected sc with saline (C, 0.9%) or either test drug 30 minutes prior to video recording. […] Behavior was registered under infrared light in rectangular arenas (150×100×40 cm) by video tracking. Motor activity is shown as velocity. Shown are means and SEM.

human 5-HT2A receptors [1] = biological target: T5, human 5-HT2A receptors (Homo sapiens, UniProt P28223); experiment: Phosphatidyl inositol (PI) hydrolysis assay at 5-HT2A; assay type: cell-based; design: expressed in transfected cells; details: mean ± SEM; for EC50: negative logarithm of EC50 in molar (M), HEK 293T cells, read-out: PI Hydrolysis pEC50 (converted); for PI Hydrolysis Eff (%): percent response of reference ligand 5-HT
Protocol: After lysing the cells with 50 μl of 0.1M formic acid, 20 μl each cell lysate was mixed with 80 μl (1 mg) RNA Binding YSi-SPA beads (GE Healthcare, Chalfont St. Giles, UK) on PICO plates (PerkinElmer) and counted on a TopCount (Packard).
Each curve is representative of at least three or more independent experiments.

D2 receptors [2] = biological target: T6, D2 receptors (Homo sapiens, UniProt P14416); experiment: GTPγS binding assay at D2; assay type: biochemical; design: expressed in transfected cells
Protocol: (§1) Cells were not centrifuged following cell scraping, but were collected directly into the ice-cold nitrogen cavitation chamber.
50 μl/well Wheat-Germ Agglutinin SPA beads (Perkin Elmer, Shelton, Conn.) were added to the plates and the plates incubated for 1 hour. The plates were then centrifuged at 1,000×g for 10 minutes and read on a Top Count NXT (Perkin Elmer, Shelton, Conn.).
To relate the results observed in R-SAT™ to a more conventional assay system, these ligands were also tested for the ability to induce GTPγS binding through D2 receptors.

[3] = biological target: human dopamine transporter (DAT) (Homo sapiens, UniProt Q01959); experiment: Equilibrium radioligand binding to DAT; details: displacement of 125I-RTI-55
Protocol: as §1
Membranes were prepared as described above. […] Binding reactions were terminated by filtration through UniFilter-96GF/B filters (from Perkin-Elmer, presoaked with 0.1% polyethylenimine for 1 h) with a Brandel 96-well harvester. Filters were washed with ice-cold wash buffer (50 mM Tris, 120 mM NaCl, pH7.4; 500 ml/plate) and then allowed to air-dry for 30 min. 50 μl MacrosScint-20 scintillation cocktail was added to each well, the plates were sealed, and then counted on a Top-Count (Packard).

5-HT2B receptors = 5-HT2B receptors (Homo sapiens, UniProt P41595); experiment: R-SAT assay 5-HT2B; assay type: cell-based; design: expressed in transfected cells; host or cells: NIH/3T3; details: Table 3, 5-HT2B; for EC50: negative logarithm of EC50 in molar, read-out: pEC50 (converted); for Eff (%): percent response of reference 5-CT
human 5-HT2A receptors [4] = biological target: T5, human 5-HT2A receptors; experiment: BRET2 beta-arrestin-2 recruitment assay at 5-HT2A; assay type: cell-based; design: expressed in transfected cells; host or cells: HEK-293T; details: mean ± SEM; for EC50: negative logarithm of EC50 in molar (M), HEK 293T cells, read-out: BRET2 pEC50 (converted); for BRET2 Eff %: percent response of reference ligand 5-HT
Protocol: (§2) BRET-2 signals were measured using the multiplate reader Mithras 940LB (Berthold Technologies, Bad Wildbad, Germany) and were calculated as the ratio between the Renilla luciferase emission and the GFP2 emission corrected by the background emissions of non-transfected cells.

D2 receptors [5] = biological target: T6, D2 receptors; experiment: BRET2 beta-arrestin-2 recruitment assay at D2; assay type: cell-based; design: expressed in transfected cells; host or cells: HEK-293T; details: percent response of reference ligand dopamine; mean ± SEM
Protocol: as §2
Each curve is representative of two to three independent experiments.

[6] = test system: reserpine-pretreated mice; experiment: Motor activity in monoamine-depleted (reserpine-pretreated) mice, video tracking; details: for motor activity (distance moved, DM 1.5): reserpine 10 mg/kg ip 20 h prior, test drug ip just prior to recording, first 30 minutes, vs reserpine only group

Sequence of 5-HT2B receptors (P41595 whole entry): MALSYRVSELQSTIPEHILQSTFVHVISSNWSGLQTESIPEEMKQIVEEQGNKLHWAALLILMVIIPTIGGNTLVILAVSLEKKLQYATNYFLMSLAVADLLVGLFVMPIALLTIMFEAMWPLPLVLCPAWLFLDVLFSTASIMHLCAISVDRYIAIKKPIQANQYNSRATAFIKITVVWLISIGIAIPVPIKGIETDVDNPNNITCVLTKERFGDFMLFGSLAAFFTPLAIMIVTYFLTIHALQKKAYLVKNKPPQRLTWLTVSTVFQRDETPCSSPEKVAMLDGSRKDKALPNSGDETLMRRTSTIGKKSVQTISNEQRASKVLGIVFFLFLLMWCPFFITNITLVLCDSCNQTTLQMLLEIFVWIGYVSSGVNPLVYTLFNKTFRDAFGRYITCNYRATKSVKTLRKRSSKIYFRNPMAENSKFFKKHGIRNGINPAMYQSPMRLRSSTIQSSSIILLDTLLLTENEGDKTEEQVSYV
Sequence of human 5-HT1B receptor (P28222 whole entry): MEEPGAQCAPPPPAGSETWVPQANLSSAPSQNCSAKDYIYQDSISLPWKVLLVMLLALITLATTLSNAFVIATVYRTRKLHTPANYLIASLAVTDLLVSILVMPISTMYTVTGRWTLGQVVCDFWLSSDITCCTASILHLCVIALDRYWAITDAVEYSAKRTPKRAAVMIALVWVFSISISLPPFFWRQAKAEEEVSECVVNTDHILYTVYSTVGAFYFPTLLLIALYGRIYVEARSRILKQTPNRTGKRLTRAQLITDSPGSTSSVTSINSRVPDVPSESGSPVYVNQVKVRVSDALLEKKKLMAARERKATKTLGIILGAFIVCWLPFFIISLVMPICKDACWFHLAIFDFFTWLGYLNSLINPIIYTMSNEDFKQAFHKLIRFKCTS
T5 sequence (P28223 whole entry): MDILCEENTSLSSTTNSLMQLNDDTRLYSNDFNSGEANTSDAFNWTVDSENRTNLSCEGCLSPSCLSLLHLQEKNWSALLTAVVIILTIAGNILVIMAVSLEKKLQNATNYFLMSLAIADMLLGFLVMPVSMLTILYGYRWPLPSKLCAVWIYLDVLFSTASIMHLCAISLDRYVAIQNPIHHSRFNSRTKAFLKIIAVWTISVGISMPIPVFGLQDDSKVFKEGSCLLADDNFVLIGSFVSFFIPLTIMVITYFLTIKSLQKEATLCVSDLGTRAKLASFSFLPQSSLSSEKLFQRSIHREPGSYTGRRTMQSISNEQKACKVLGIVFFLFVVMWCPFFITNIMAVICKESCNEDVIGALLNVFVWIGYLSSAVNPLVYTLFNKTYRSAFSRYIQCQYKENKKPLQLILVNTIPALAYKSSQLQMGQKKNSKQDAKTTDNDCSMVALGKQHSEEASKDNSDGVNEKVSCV
T6 sequence (P14416 1-414 isoform P14416-2): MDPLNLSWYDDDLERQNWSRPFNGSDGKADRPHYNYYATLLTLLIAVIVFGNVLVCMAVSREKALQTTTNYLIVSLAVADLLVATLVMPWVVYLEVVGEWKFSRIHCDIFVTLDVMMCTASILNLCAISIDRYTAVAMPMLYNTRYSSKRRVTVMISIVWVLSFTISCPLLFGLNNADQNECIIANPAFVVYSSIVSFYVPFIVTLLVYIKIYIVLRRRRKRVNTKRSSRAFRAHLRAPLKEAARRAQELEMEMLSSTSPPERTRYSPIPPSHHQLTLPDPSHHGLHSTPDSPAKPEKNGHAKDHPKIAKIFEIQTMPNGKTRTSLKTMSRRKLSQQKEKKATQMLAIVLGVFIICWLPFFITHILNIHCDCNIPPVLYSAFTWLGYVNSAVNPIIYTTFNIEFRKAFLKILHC
Sequence of human dopamine transporter (DAT) (Q01959 whole entry): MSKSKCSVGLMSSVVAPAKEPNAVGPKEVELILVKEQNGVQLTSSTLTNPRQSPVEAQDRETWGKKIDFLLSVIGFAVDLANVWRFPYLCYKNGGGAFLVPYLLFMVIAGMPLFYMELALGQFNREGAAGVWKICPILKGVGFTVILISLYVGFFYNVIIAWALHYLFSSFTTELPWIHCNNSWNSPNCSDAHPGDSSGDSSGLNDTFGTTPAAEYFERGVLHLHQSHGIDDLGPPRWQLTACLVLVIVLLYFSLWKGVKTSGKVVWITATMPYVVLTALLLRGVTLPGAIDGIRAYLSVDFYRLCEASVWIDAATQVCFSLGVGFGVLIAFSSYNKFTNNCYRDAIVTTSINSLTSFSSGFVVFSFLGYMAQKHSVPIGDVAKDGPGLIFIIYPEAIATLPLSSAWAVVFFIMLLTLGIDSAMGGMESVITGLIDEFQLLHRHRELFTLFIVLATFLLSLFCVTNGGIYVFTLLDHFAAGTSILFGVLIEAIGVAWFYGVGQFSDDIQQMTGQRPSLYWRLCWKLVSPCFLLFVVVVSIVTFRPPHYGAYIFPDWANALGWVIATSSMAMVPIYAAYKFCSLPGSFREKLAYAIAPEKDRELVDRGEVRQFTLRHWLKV
T4 sequence (P18089 whole entry): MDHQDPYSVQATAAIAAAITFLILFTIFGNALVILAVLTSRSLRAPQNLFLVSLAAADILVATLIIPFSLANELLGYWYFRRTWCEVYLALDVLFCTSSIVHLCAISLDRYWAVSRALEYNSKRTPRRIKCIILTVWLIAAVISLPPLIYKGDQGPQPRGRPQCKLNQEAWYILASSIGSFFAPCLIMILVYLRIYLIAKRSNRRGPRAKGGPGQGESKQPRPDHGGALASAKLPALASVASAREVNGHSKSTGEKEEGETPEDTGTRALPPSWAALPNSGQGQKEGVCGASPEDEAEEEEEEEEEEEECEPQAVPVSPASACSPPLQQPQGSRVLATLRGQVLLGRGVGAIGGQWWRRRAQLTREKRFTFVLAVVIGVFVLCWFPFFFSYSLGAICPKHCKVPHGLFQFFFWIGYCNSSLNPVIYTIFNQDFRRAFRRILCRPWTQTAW
T2 sequence (P35367 whole entry): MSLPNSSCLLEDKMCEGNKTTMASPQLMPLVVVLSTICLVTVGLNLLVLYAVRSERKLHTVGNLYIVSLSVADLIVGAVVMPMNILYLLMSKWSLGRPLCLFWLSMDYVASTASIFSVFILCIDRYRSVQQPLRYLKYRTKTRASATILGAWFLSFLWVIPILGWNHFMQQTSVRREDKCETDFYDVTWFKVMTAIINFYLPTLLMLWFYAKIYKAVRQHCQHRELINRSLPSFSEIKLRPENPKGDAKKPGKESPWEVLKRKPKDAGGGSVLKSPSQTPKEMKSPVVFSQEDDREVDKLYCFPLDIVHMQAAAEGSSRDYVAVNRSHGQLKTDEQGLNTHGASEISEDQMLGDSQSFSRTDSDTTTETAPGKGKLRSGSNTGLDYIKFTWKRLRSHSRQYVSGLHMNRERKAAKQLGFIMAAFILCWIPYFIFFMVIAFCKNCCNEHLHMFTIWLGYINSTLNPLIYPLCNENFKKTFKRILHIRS

Structure (SMILES) | Eff (%) (human 5-HT1B receptor) | Eff (%) (human 5-HT1F receptor) | Eff (%) (human H1 receptor) | Eff (%) (human M4 receptor) | Eff (%) (human alpha2B receptor) | motor activity (velocity) in active rats (active rats) | EC50 (human 5-HT2A receptors [1]) | PI Hydrolysis Eff (%) (human 5-HT2A receptors [1]) | Inh % [3] | EC50 (5-HT2B receptors) | Eff (%) (5-HT2B receptors) | EC50 (human 5-HT2A receptors [4]) | BRET2 Eff % (D2 receptors [5]) | motor activity (distance moved, DM 1.5) [6] | also measured
CCCN1CCC[C@H](c2cccc(S(C)(=O)=O)c2)C1 [(+)-OSU6162, (3R)-3-[3-(methylsulfonyl)phenyl]-1-propylpiperidine] | 20% | 22% | 3% | 4% | 8% | decreased motor activity in active rats | 2e-06 M | 82 ± 4% | 5% | 5.01 µM | 111% | 1.58e-05 M | 0 ± 0% | statistically significant increase in motor activity at 125, 250 and 500 μmol/kg, with a peak response at 250 μmol/kg | Emax at 50 µM (D2 receptors [2]; read-out: GTPγS Eff %, response at 50 μM): 36%; BRET2 Eff % (human 5-HT2A receptors [4]; listed as (+) OSU-6162): ~80%; BRET2 Eff % (human 5-HT2A receptors [4]; listed as (+)-OSU-6162): 84 ± 2%; effect on motor activity compared with the (−)-enantiomer ([6]; reserpine-pretreated mice, 250 μmol/kg ip, p<0.01): much larger effect on motor activity
CCCN1CCC[C@@H](c2cccc(S(C)(=O)=O)c2)C1 [(−)-OSU6162, (3S)-3-[3-(methylsulfonyl)phenyl]-1-propylpiperidine] | 75% | 30% | 2% | 2% | 13% | decreased motor activity in active rats | 1.26e-06 M | 65 ± 4% | 6% | 0.631 µM | 75% | 1e-05 M | 0 ± 0% | statistically significant increase in motor activity at 125 and 250 μmol/kg | EC50 (human 5-HT1B receptor; negative logarithm of EC50 in molar, read-out: pEC50 (converted)): 2.51 µM; EC50 (D2 receptors [2]; negative logarithm of EC50 in molar, HEK293T membranes, mean ± SEM, read-out: GTPγS pEC50 (converted)): 0.501 µM; GTPγS Eff % (D2 receptors [2]; percent response of reference ligand dopamine, mean ± SEM): 37 ± 9%; BRET2 Eff % (human 5-HT2A receptors [4]; listed as (−) OSU-6162): approximately 60%; BRET2 Eff % (human 5-HT2A receptors [4]; listed as (−)-OSU-6162): 63 ± 2%
